{"source": "patent US20230137849A1", "about": "“USE OF A COMPOUND OF THE DIURETICS CLASS FOR TREATING CANCER” (AZELEAD, priority 2017, published 2023)", "test_system": "4T1 cells", "assay": "4T1 cell migration test (scratch test)", "type": "cell-based, mouse", "conditions": "lowest concentration 10 nM, t=24 h, FIG. 8", "experimental": "The cell migration assays on the 4T1 cell line are carried out in vitro in 12-well plates on the 4T1 cell line. The cells are maintained in DMEM culture medium supplemented with 10% calf serum (FCS) and incubated at 37° C. and 5% CO2. The cell monolayer is injured with a 10 μ pipette tip. The medium is aspirated and replaced by a medium containing the compounds to be tested at the concentrations described. The wells are imaged using a microscope and the injured surface is repaired at the indicated times to highlight the cell anti-migratory power of the tested chemical compounds. The average of the measurements obtained is compared with the control wells: (average value of the compounds treated/average value of the controls)*100=% of the average value.\nIn order to validate the anti-migratory potential of althiazide, we carry out a “scratch test” on 4T1 cells in culture according to the cell migration test protocol on the 4T1 cell line described in the Materials and Methods section. This test is used to evaluate the migratory power of a chemical compound on cells in culture. […]\nThe area of the injured area is measured for each well and the percentage of migration is calculated under each condition.", "data": [{"compound": "C=CCSCC1Nc2cc(Cl)c(S(N)(=O)=O)cc2S(=O)(=O)N1", "note": "(racemic) [althiazide]", "values": [{"measurement": "decrease in cell migration", "value": 40, "unit": "%"}]}]}
